Legend:
[1] = pKa of the lipid by TNS fluorescence; assay type: physicochemical; conditions: pKa
How it was run: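 Lipid dissolved in ethanol (2 mM stock) and measured with TNS across eight buffers of differing pH, in water at standard temperature and pressure. Normalized fluorescence intensity plotted against pH and points joined by a smooth line to derive pKa, precise to about 0.2 units.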

[2] = tested on: PLK-1 mRNA in Hep3B tumors; assay: Hep3B tumor study, PLK-1 mRNA KD in tumor tissue; assay type: in vivo, human; conditions: Hep3B tumor, mouse, i.v., 1 × 1 mg siRNA/kg, LNP composition as in the source
[3] = tested on: PLK-1 mRNA in HepG2 tumors; assay: HepG2 tumor study, PLK-1 mRNA KD in tumor tissue; assay type: in vivo, human; conditions: Mus musculus, HepG2, iv, 24 h, HepG2 tumor in nude mice, 3 × 3 mg/kg siRNA iv, tumors harvested 24 hrs after the last dose; read-out: PLK1 % inhibition
Description: (§1) Formulated siRNAs are made up of double stranded siRNA sequences specific to a target mRNA sequence, and are in the form of lipid nucleotid particles (LNPs) containing cationic lipids, stealth lipids and neutral lipids, as provided in the Examples below. The siRNA construct for use in targeting the liver is specific to Factor VII. The siRNA construct for use in targeting tumors is specific to PLK1-424, which is published by Judge et al., See, J Clin Invest. 2009 March; 119(3):661-73; doi: 10.1172/JCI37515). • 1. FVII siRNA duplex sequence
HepG2 tumors are established in female nude mice by sc injection of 5×10^6 cells in 100 ul PBS into the left flank. Mice are randomized into treatment groups 10-14 days after seeding as tumors reached an average size of 150 mm^3. siRNA formulated LNP formulations are administered at 3×3 mg/kg dose levels intravenously via the lateral tail vein calculated on a mg siRNAs/kg basis according to individual animal weights (10 ml/kg injection volume). Mice are euthanized by CO2 inhalation at various time points and the tumors are harvested 24 hrs after the last dose for mRNA quantitation. Lipids with a wide range of pKa (5.3-6.6) are used in the LNP formulations. Tumors are measured in 2 dimensions (width×length) to assess tumor growth using digital calipers. Tumor volume is calculated using the equation [a×b×b/2], where a=largest diameter and b=smallest diameter.
About 30-50 mg tumor tissue is homogenized in tissue lysis buffer in a Qiagen homogenizer followed by centrifugation to clarify lysates. Total RNA is isolated using RNeasy isolation kit (catalog number 74106) according to the manufacture's protocol. PLK-1 mRNA is analyzed by quantitative PCR and normalized to human GAPDH. Applied Biosystems human PLK-1 gene expression assay Hs00983229_m1 and human GAPDH endogenous control cat number 4326317E are used for mRNA detection.
The pKa in all tables refers to the pKa of the cationic lipid. Where multiple doses are indicated (e.g., 3×5), the first number indicates the number of doses given and the second number indicates the amount per dose in mg siRNA (biologically active agent) per kg mouse. In general the multiple doses are administered at 24 hour intervals, and tissues for mRNA quantitation are harvested 24 hours after the last dose.

[4] = tested on: PLK-1 mRNA in 786-0 tumors; assay: 786-0 renal tumor study, PLK-1 mRNA KD in tumor tissue; assay type: in vivo, human; conditions: tumors collected 48 hrs after the single dose, read-out: PLKI % Inhibition
Description: as §1
786-0 tumors are established as described before by sc injection of 10×10^6 cells in 200 ul PBS. 4 weeks post implantation, the mice with the tumor size ranging from 200-250 mm^3 are randomized into treatment groups. siRNA formulated LNPs are then intravenously administered at either 5 or 10 mg/kg dose levels. 48 hrs after the single dose, tumors are collected for mRNA quantitation.
About 30-50 mg tumor tissue is homogenized in tissue lysis buffer in a Qiagen homogenizer followed by centrifugation to clarify lysates. […] PLK-1 mRNA is analyzed by quantitative PCR and normalized to human GAPDH. […]
The pKa in all tables refers to the pKa of the cationic lipid. […] In general the multiple doses are administered at 24 hour intervals, and tissues for mRNA quantitation are harvested 24 hours after the last dose.

[5] = Particle size and PDI by dynamic light scattering (Malvern Zetasizer); assay type: physicochemical; design: Final size: unit not given here; conditions: LNP formulation, Table 11
How it was run: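 Nanoparticles diluted in PBS to a count rate of about 200-400 kcts and measured by dynamic light scattering; size given as intensity-weighted average diameter, with polydispersity index from the same measurement.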

CCCCC/C=C\C/C=C\CCCCCCCCOCC(CN1CCCCC1)OCCOC(=O)CCC(=O)O[C@H]1CC[C@@]2(C)C(=CC[C@H]3[C@@H]4CC[C@H]([C@H](C)CCCC(C)C)[C@@]4(C)CC[C@@H]32)C1 (some centres unmarked) [E0104]
pKa [1]: 6.1 | PLK1 inhibition % ([2]; stealth lipid S004, molar ratio 50/48/2, N/P 3): 48% | PLK1 inhibition % ([2]; stealth lipid S004, molar ratio 50/48/2, N/P 4): 50% | inhibition at 3 mg/kg [3]: 32% | inhibition at 5 mg/kg ([4]; 1 × 5 mg/kg iv): 55% | inhibition at 10 mg/kg ([4]; 1 × 10 mg/kg iv): 50% | Final size ([5]; lipid molar ratio 45/43/10/2): 87.59 | Final size ([5]; lipid molar ratio 50/48/2): 95.05
